According to EP4707280A1, “1,4-CINEOLE DERIVATIVE AND INTERMEDIATE THEREOF, HERBICIDE CONTAINING SAID DERIVATIVE AS ACTIVE INGREDIENT, METHOD FOR USING HERBICIDE, AND METHOD FOR PREPARING AGROCHEMICAL COMPOSITION” (HOKKO CHEMICAL INDUSTRY CO., LTD., priority 2023, dated 2024):

What was measured:
Format in all cases: in vivo
[1] = system: Echinochloa crus-galli; assay: Test Example 4: herbicidal effect test by stem and leaf treatment in upland field; conditions: Echinochloa crus-galli; 120 g per 10 ares; sprayed seven days after sowing, upland soil; 14 days after application; read-out: weed inhibition rate
[2] = system: Echinochloa crus-galli var. formosensis; assay: Test Example 2: herbicidal effect test by application during growth period of paddy rice; conditions: Echinochloa crus-galli; 120 g per 10 ares; applied seven days after sowing, flooded pots; 14 days after application; read-out: weed inhibition rate
How it was run: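 Paddy soil in Wagner pots was puddled with N:P:K 16:16:16 fertilizer, sown with 30 weed seeds per species at 0–1 cm and flooded to about 3 cm. Seven days after sowing, a water-diluted emulsifiable concentrate was dropped onto the water at 120 g active ingredient per 10 ares. Weed inhibition (%) was scored at 14 days, in duplicate.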

[3] = system: Digitaria ciliaris; assay: Test Example 4: herbicidal effect test by stem and leaf treatment in upland field; conditions: Digitaria ciliaris; 120 g per 10 ares; sprayed seven days after sowing, upland soil; 14 days after application; read-out: weed inhibition rate
[4] = system: Digitaria ciliaris; assay: Test Example 3: herbicidal effect test by soil application in upland field; conditions: Digitaria ciliaris, 120 g per 10 ares, sprayed one day after sowing, 14 days after application, read-out: weed inhibition rate
How it was run: (§1)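 Weed inhibition (%) was assessed 14 days after treatment, in duplicate per concentration group. Seeds had been mixed into the upper 1 cm of upland alluvial loam, and the soil surface was sprayed one day later with the diluted emulsifiable concentrate at 120 g active ingredient per 10 ares.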

[5] = system: Echinochloa crus-galli; assay: as above; conditions: Echinochloa crus-galli, 120 g per 10 ares, sprayed one day after sowing, 14 days after application, read-out: weed inhibition rate
How it was run: as §1

[6] = system: Echinochloa crus-galli var. formosensis; assay: Test Example 1: herbicidal effect test by soil application in paddy rice; conditions: Echinochloa crus-galli, soil, 336 h; 120 g active ingredient per 10 ares; applied immediately after sowing, flooded pots; 14 days after application; read-out: weed inhibition rate
How it was run: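 Treatment: 120 g active ingredient per 10 ares as a water-diluted emulsifiable concentrate, dropped onto flooded pots immediately after sowing. Thirty seeds per species went 0–1 cm into puddled paddy soil with 16:16:16 fertilizer, with ~3 cm flooding maintained in a glass greenhouse.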

CC(C)[C@]12C[C@@H](OCc3ccccc3OC(F)(F)F)[C@](C)(CC1=O)O2 [2-348, (1R,4S,5R)-1-isopropyl-4-methyl-5-((2-(trifluoromethoxy)benzyl)oxy)-7-oxabicyclo[2.2.1]heptan-2-one]
≥ 80%: inhibition at 1200 g/ha [1] | inhibition at 1200 g/ha [2] | inhibition at 1200 g/ha [3] | inhibition at 1200 g/ha [4] | inhibition at 1200 g/ha [5] | pest or weed control at 1200 g/ha [6]

CC(C)C12CC(OCc3ccccc3I)C(C)(CC1Br)O2 (stereo not drawn) [1-1364, 5-bromo-2-[(2-iodophenyl)methoxy]-1-methyl-4-isopropyl-7-oxabicyclo[2.2.1]heptane]
≥ 80%: inhibition at 1200 g/ha [1] | inhibition at 1200 g/ha [2] | inhibition at 1200 g/ha [3] | inhibition at 1200 g/ha [4] | inhibition at 1200 g/ha [5] | pest or weed control at 1200 g/ha [6]

CC(C)[C@@]12C[C@H](OCc3ccccn3)[C@@](C)(C[C@H]1Br)O2 [1-1059, 2-[[(1R,2S,4S,5R)-5-bromo-1-methyl-4-isopropyl-7-oxabicyclo[2.2.1]heptan-2-yl]oxymethyl]pyridine]
≥ 80%: inhibition at 1200 g/ha [1] | inhibition at 1200 g/ha [2] | inhibition at 1200 g/ha [3] | inhibition at 1200 g/ha [4] | inhibition at 1200 g/ha [5] | pest or weed control at 1200 g/ha [6]

CC(C)C12CC(OCc3ccccc3C#N)C(C)(CC1Br)O2 (stereo not drawn) [1-1370, 2-[(5-bromo-1-methyl-4-isopropyl-7-oxabicyclo[2.2.1]heptan-2-yl)oxymethyl]benzonitrile]
≥ 80%: inhibition at 1200 g/ha [1] | inhibition at 1200 g/ha [2] | inhibition at 1200 g/ha [3] | inhibition at 1200 g/ha [4] | inhibition at 1200 g/ha [5] | pest or weed control at 1200 g/ha [6]

CC(C)C12CC(OCc3c(Cl)cccc3Cl)C(C)(CC1Br)O2 (stereo not drawn) [1-1380, 5-bromo-2-[(2,6-dichlorophenyl)methoxy]-1-methyl-4-isopropyl-7-oxabicyclo[2.2.1]heptane]
≥ 80%: inhibition at 1200 g/ha [1] | inhibition at 1200 g/ha [2] | inhibition at 1200 g/ha [3] | inhibition at 1200 g/ha [4] | inhibition at 1200 g/ha [5] | pest or weed control at 1200 g/ha [6]

CC(C)[C@@]12C[C@H](OCc3ccccc3)[C@@](C)(C[C@H]1Br)O2 [1-1015, (1R,2S,4S,5R)-5-bromo-1-methyl-2-phenylmethoxy-4-isopropyl-7-oxabicyclo[2.2.1]heptane]
≥ 80%: inhibition at 1200 g/ha [1] | inhibition at 1200 g/ha [2] | inhibition at 1200 g/ha [3] | inhibition at 1200 g/ha [4] | inhibition at 1200 g/ha [5] | pest or weed control at 1200 g/ha [6]

CC(C)[C@@]12C[C@H](OCc3c(Cl)cccc3Cl)[C@@](C)(C[C@H]1Br)O2 [1-1053, (1R,2S,4S,5R)-5-bromo-2-[(2,6-dichlorophenyl)methoxy]-1-methyl-4-isopropyl-7-oxabicyclo[2.2.1]heptane]
≥ 80%: inhibition at 1200 g/ha [1] | inhibition at 1200 g/ha [2] | inhibition at 1200 g/ha [3] | inhibition at 1200 g/ha [4] | inhibition at 1200 g/ha [5] | pest or weed control at 1200 g/ha [6]

CC(C)[C@@]12C[C@H](OCc3c(Cl)cccc3Cl)[C@@](C)(C[C@H]1I)O2 [1-1120, (1R,2S,4S,5R)-2-[(2,6-dichlorophenyl)methoxy]-5-iodo-1-methyl-4-isopropyl-7-oxabicyclo[2.2.1]heptane]
≥ 80%: inhibition at 1200 g/ha [1] | inhibition at 1200 g/ha [2] | inhibition at 1200 g/ha [3] | inhibition at 1200 g/ha [4] | inhibition at 1200 g/ha [5] | pest or weed control at 1200 g/ha [6]

CC(C)C12CC(OCc3cccc(Cl)c3)C(C)(CC1Br)O2 (stereo not drawn) [1-1359, 5-bromo-2-[(3-chlorophenyl)methoxy]-1-methyl-4-isopropyl-7-oxabicyclo[2.2.1]heptane]
≥ 80%: inhibition at 1200 g/ha [1] | inhibition at 1200 g/ha [2] | inhibition at 1200 g/ha [3] | inhibition at 1200 g/ha [4] | inhibition at 1200 g/ha [5] | pest or weed control at 1200 g/ha [6]

COc1ccccc1CO[C@H]1C[C@@]2(C(C)C)O[C@]1(C)C[C@H]2I [1-1088, (1R,2S,4S,5R)-5-iodo-2-[(2-methoxyphenyl)methoxy]-1-methyl-4-isopropyl-7-oxabicyclo[2.2.1]heptane]
≥ 80%: inhibition at 1200 g/ha [1] | inhibition at 1200 g/ha [2] | inhibition at 1200 g/ha [3] | inhibition at 1200 g/ha [4] | inhibition at 1200 g/ha [5] | pest or weed control at 1200 g/ha [6]

CC(C)[C@@]12C[C@H](OCc3ccccc3Cl)[C@@](C)(C[C@H]1I)O2 [1-1097, (1R,2S,4S,5R)-2-[(2-chlorophenyl)methoxy]-5-iodo-1-methyl-4-isopropyl-7-oxabicyclo[2.2.1]heptane]
≥ 80%: inhibition at 1200 g/ha [1] | inhibition at 1200 g/ha [2] | inhibition at 1200 g/ha [3] | inhibition at 1200 g/ha [4] | inhibition at 1200 g/ha [5] | pest or weed control at 1200 g/ha [6]

CC(C)C12CC(OCc3cccc(I)c3)C(C)(CC1Br)O2 (stereo not drawn) [1-1365, 5-bromo-2-[(3-iodophenyl)methoxy]-1-methyl-4-isopropyl-7-oxabicyclo[2.2.1]heptane]
≥ 80%: inhibition at 1200 g/ha [1] | inhibition at 1200 g/ha [2] | inhibition at 1200 g/ha [3] | inhibition at 1200 g/ha [4] | inhibition at 1200 g/ha [5] | pest or weed control at 1200 g/ha [6]

COC(=O)c1ccccc1COC1CC2(C(C)C)OC1(C)CC2Br (stereo not drawn) [1-1376, methyl 2-[(5-bromo-1-methyl-4-isopropyl-7-oxabicyclo[2.2.1]heptan-2-yl)oxymethyl]benzoate]
≥ 80%: inhibition at 1200 g/ha [1] | inhibition at 1200 g/ha [2] | inhibition at 1200 g/ha [3] | inhibition at 1200 g/ha [4] | inhibition at 1200 g/ha [5] | pest or weed control at 1200 g/ha [6]

COc1ccccc1CO[C@H]1C[C@@]2(C(C)C)O[C@]1(C)C[C@H]2Br [1-1022, (1R,2S,4S,5R)-5-bromo-2-[(2-methoxyphenyl)methoxy]-1-methyl-4-isopropyl-7-oxabicyclo[2.2.1]heptane]
≥ 80%: inhibition at 1200 g/ha [1] | inhibition at 1200 g/ha [2] | inhibition at 1200 g/ha [3] | inhibition at 1200 g/ha [4] | inhibition at 1200 g/ha [5] | pest or weed control at 1200 g/ha [6]
